Consider one compound from patent US20080081781A1, “Methods and compositions for the treatment of metabolic syndrome” (priority 2004, published 2008).

The subject of data set [1] is InsR. Kind of data set: InsR expression in Bel-7402 cells. It is filed as cell-based, human. As to conditions: Bel-7402 compared with HepG2. The source says: The effect of berberine on InsR was further confirmed in another hepatoma cell line, Bel-7402 […] (FIG. 18). […] The expression of PPAR-r mRNA in liver cells was not changed by berberine (data not shown).
The nature of data set [2]: Toxicity analysis (LD50) in rats. As to conditions: rat, in vivo. The protocol: Rats and mice were administered berberine through a variety of techniques, including orally, through subcutaneous injection, peritoneal injection and intravenous injection.
The test system of a further data set is LDLR mRNA. Nature of the data set: LDLR mRNA stability after actinomycin D in HepG2 cells (Northern blot). It is filed as cell-based, human. As to conditions: HepG2, berberine 15 hours then actinomycin D 5 μg/ml. As for the experimental part: HepG2 cells were cultured and then left alone or treated with berberine for 15 hours. After 15 hours, actinomycin D (5 μg/ml) was added to cells at 0, 20, 40, 60, 90, 120, or 150 minutes. Total mRNA was isolated and analyzed by Northern blot for the amount of LDLR mRNA. […] In contrast, the mRNA stability of HMG-CoA reductase was not altered by berberine.

Data set [3] deals with InsR. Nature of the data set: InsR expression on peripheral blood lymphocytes of patients (flow cytometry). It is filed as in vivo, human. As to conditions: patients after two months of berberine. The source says: Peripheral blood lymphocytes (PBL) were collected for InsR expression analysis. InsR protein expressed on the surface of peripheral blood lymphocytes were stained with monoclonal antibody against human insulin receptor (Pharmagen, San Diego, Calif.) and analyzed in a flow cytometer (BD and Company, San Jose, Calif.)

In another data set the test system is LDLR promoter. Kind of data set: LDLR promoter activity, pLDLR234Luc reporter in HepG2 cells. It is filed as cell-based, human. As to conditions: pLDLR234Luc HepG2, LPDS or LPDS and cholesterol medium, 8 hour treatment. The source says:
HepG2 cells were transfected with the reporter construct pLDLR234Luc, which contains the SRE- I motif and the sterol-independent regulatory element that mediates the cytokine oncostatin M-induced transcription of the LDLR gene.

Data set [4] has as its system InsR mRNA. Nature of the data set: InsR mRNA stability after actinomycin D in HepG2 cells (slot blot). It is filed as cell-based, human. As to conditions: HepG2, […] 8 h then actinomycin D; untreated cells 4.4 hr. As for the experimental part: HepG2 cells were treated or untreated with 7.5 μg/ml of berberine for 8 h. Then, 5 μg/ml of actinomycin D was added to block the transcription. Total cellular RNA was harvested at 0, 2, 4, 6, or 8 hours after actinomycin D treatment, and slot-blotted to nitrocellulose membranes as described above. The membranes were respectively hybridized with InsR and ACTB specific probes as described above, and bands were quantitated through densitometry. The InsR mRNA levels were normalized to ACTB, and their remaining percentages are plotted against time and the decaying rate or half-life of InsR mRNA was calculated (FIG. 21B).

For data set [5], the system named is hyperlipidemia Chinese hamster. Nature of the data set: Lipid lowering effects of berberine in hyperlipidemia Chinese hamster. It is filed as in vivo. To be noted: for LDL reduced by: after the 10 day treatment; for LDL Protein / Triglycerides / Cholesterol: serum, ten days; for LDL Protein: saline control 2.8 ± 0.9; for Triglycerides: saline control 3.6 ± 0.4; for Cholesterol: saline control 6.4 ± 1.0. As for the experimental part:
Two weeks prior to treatment, female Chinese hamsters purchased from the National Institute of Vaccine and Serum research (Beijing, China) were switched to a high fat and cholesterol diet (10% lard, 10% egg yolk powder and 1% cholesterol). After two weeks, groups of 14 hamsters were given either 10 mg/kg/day of berberine through peritoneal injection, 20 mg/kg/day of berberine through peritoneal injection, 50 mg/kg/day, 100 mg/kg/day of berberine orally or saline for ten days. Serum cholesterol, triglyceride and LDL levels were measured after 4 h fasting before, during and after the course of the treatment. Four hours after the course of the treatment, the animals were sacrificed and their livers removed for analysis.

Data set [6] has as its system InsR mRNA. Kind of data set: Rat liver InsR and LDLR mRNA (quantitative real time RT-PCR). To be noted: rats, 14 days. It is filed as in vivo. As for the experimental part: The livers were dissected and stored in liquid nitrogen for RNA extraction, real-time RT-PCR and PKC activity assay. Total blood samples were also collected to assay fasting blood glucose and serum insulin levels. The insulin levels were analyzed using radio-immunoassay (Linco Research, St Charles, Mo.). The insulin sensitivity indexes (ISI) were calculated according to the formula: 10^4/(fasting serum insulin X fasting blood glucose) (Hanson, Am. J. Epidemiol. 15 1(2), 190-198 (2000)). The insulin level and ISI of normal rats were also determined for comparison. […] It also elevated the fasting blood glucose from 7 to 12.8 mmol/L (P<0.001).
Liver mRNA extracts were used for quantitative real time RT-PCR assay. Total cellular RNA was reverse-transcribed into cDNA using the Reverse Transcription System (Promega, Madison, Wis.). Quantitative real-time PCR were performed with these cDNA using the Applied Biosystems 7500 Real-Time PCR System and TaqMan® Universal PCR Master Mix (Applied Biosystems, Foster City, Calif.). […] 2.5 μl of cDNA sample, 12.5 μl of Universal PCR Master Mix, and 1.25 μl of TaqMan® Gene Expression Assay reagent were mixed in a 25 μl reaction system, and the comparative CT method was used in relative gene quantification using the TaqMan® SDS analysis software. […]

Setting [7] is: 10 mg/kg/day peritoneal injection.
Where [8] appears, read: 20 mg/kg/day peritoneal injection.

The structures appear in SMILES notation.

As usually defined, the LD50 is the dose at which mortality reaches 50%. Higher therefore signals lower toxicity. On to `COc1ccc2cc3[n+](cc2c1OC)CCc1cc2c(cc1-3)OCO2` [berberine], for which the InsR expression entry in the data set with InsR [1] was “identical upregulating effect”. Moreover, the 50% lethal dose (LD50) in data set [2] (intraperitoneal, peritoneal injection) is 138 to 146 mg/kg; in data set [2] (intravenous injection) it was 46.2 to 63.3 mg/kg; in data set [2] (oral dose), > 15000 mg/kg; in data set [2] (sc, subcutaneous injection), 7970 to 10700 mg/kg. Moreover, the “prolongation of turnover rate of LDLR transcript” value in the data set on LDLR mRNA was “approximately threefold”. The “% of PBL expressing InsR on the surface” value in the data set with InsR [3] was “significantly increased”. Also, the LDLR promoter activity result with LDLR promoter is recorded as “no effect”. Besides, in the data set with InsR mRNA [4], the “turnover rate (half-life) of InsR transcript” value amounted to 4.7 h. Also, the entries for the “LDL reduced by” value in data set [5] (50 mg/kg/day) and in data set [5] (100 mg/kg/day) were 26% and 42%, respectively. The “LDL Protein” value in data set [5] (setting [7]) was 1.6 ± 0.3; in data set [5] (setting [8]), 0.9 ± 0.1; in data set [5] (50 mg/kg/day (orally)), 2.07 ± 0.9; in data set [5] (100 mg/kg/day oral) it was 1.2 ± 0.2. In addition, the Triglycerides was found to be 2.6 ± 0.3 in data set [5] (setting [7]), 1.7 ± 0.5 in data set [5] (setting [8]) and 1.9 ± 0.4 in data set [5] (100 mg/kg/day oral). Also, the Cholesterol amounted to 4.1 ± 0.7 in data set [5] (setting [7]), 3.2 ± 0.5 in data set [5] (setting [8]), 3.5 ± 0.5 in data set [5] (50 mg/kg/day (orally)) and 3.8 ± 0.7 in data set [5] (100 mg/kg/day oral). Moreover, the “increase in InsR mRNA in the livers” value in the data set with InsR mRNA [6] (75 mg/kg/day) was determined as 1.8 fold; with InsR mRNA [6] (150 mg/kg/day) it was 2.3 fold.
